In patent US12478598B2 (Rush University Medical Center, priority 2019, dated 2025):

Experiments:
[1] = tested on: lenti-GLDC shRNA-insulted mice; test: Barnes maze spatial learning and memory in lenti-GLDC shRNA-insulted mice; type: in vivo, C57/BL6 mice; settings: 50 and 100 mg/kg body wt/d, daily gavage, after 7 d of treatment
Description: FIG. 1A-1B. […] C57/BL6 mice (8-10 week old) received lentiviral GLDC shRNA (1×10^7 IFU/mouse in 100 μl Hank's Balanced Salt Solution or HBSS) once via tail-vein injection. Therefore, control mice also received 100 μl HBSS via tail-vein. From 7 d after lenti-GLDC shRNA injection, mice were treated with different doses (50 and 100 mg/kg body wt/d) of CA daily via gavage. After 7 d of CA treatment, spatial learning and memory was monitored by Barnes maze (FIG. 1A, latency; FIG. 1B, errors). Results are mean±SEM of five mice per group.
(§1) C57/BL6 mice (8-10 week old) received lentiviral GLDC shRNA (1×10^7 IFU/mouse in 100 μl Hank's Balanced Salt Solution or HBSS) once via tail-vein injection (FIG. 1). Therefore, a group of control mice received only 100 μl HBSS via tail-vein injection.
(§2) Therefore, one group of lenti-GLDC shRNA-insulted mice were also treated with 100 μl 0.5% methyl cellulose as vehicle control.
Lenti-GLDC shRNA-insulted mice took longer time to find the correct hole (FIG. 1A) and made more errors (FIG. 1B) as compared to HBSS-treated control mice.

[2] = tested on: lenti-GLDC shRNA-insulted mice; test: Glycine level in cortex of lenti-GLDC shRNA-insulted mice (fluorometric assay kit); type: in vivo, C57/BL6 mice; settings: oral, 14 d of treatment
Description: FIG. 2. […] C57/BL6 mice (8-10 week old) received lentiviral GLDC shRNA (1×10^7 IFU/mouse in 100 μl HBSS) once via tail-vein injection. Therefore, control mice also received 100 μl HBSS via tail-vein. From 7 d after lenti-GLDC shRNA injection, mice were treated with different doses (50 and 100 mg/kg body wt/d) of CA daily via gavage. After 14 d of CA treatment, the level of glycine was measured in cortex by using a fluorometric assay kit (Biovision). Each mouse sample was run in triplicate. Results are mean±SEM of five mice per group.
as §1, §2
On 14 d of treatment, mice were sacrificed and level of glycine was measured in brain (cortex).

O=C(O)C=Cc1ccccc1 [cinnamic acid]
errors in reaching the target hole (Barnes maze) [1]: significantly reduced latency and errors
latency in reaching the target hole (Barnes maze) [1]: significantly reduced latency
level of glycine in the cortex ([2]; 50 mg/kg body wt/d): very effective in lowering the level of glycine
level of glycine in the cortex ([2]; 50 and 100 mg/kg body wt/d): strongly inhibited the level of glycine
